10 molecules from US5834431A, “Des-Arg^9 -BK antagonists” (Cortech, Inc., priority 1995, dated 1998) can be followed below.

The target of experiment [1] is T1, B1 receptor (Homo sapiens, UniProt P46663).
T1 construct: Human lung fibroblasts IMR-90 cells were obtained from ATCC and propagated in DMEM media; host or cells: IMR-90 human lung fibroblasts, treated with interleukin 1b three hours before harvest; membranes
T1 sequence (P46663 1-353): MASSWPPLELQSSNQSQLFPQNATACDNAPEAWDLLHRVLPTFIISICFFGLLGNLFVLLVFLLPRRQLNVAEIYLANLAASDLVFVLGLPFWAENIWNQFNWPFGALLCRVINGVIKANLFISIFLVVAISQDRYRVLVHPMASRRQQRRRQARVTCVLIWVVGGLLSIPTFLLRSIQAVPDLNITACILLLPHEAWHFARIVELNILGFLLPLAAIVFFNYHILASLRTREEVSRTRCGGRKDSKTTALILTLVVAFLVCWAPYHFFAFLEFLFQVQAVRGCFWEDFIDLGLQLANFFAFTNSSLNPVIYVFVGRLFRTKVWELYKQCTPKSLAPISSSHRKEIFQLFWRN
Kind of experiment: Human B1 binding, IL-1b-treated IMR-90 membranes, 3H-des-Arg9-Kallidin. As to conditions: 0.5 nM 3H-des-Arg9-Kallidin, pIC50 = -log of molar IC50. How it is done:
(§1) Human lung fibroblasts IMR-90 cells were obtained from ATCC and propagated in DMEM media in […] roller bottles until confluent. Three hours prior to harvesting, the cells were treated with Interleukin lb (200 pg/ml). Human BK2 clones were propagated in F12 media until confluent. Preparation of membranes for binding assays was carried out by scraping cells from roller bottles in ice cold PBS and centrifuging at 1000 ×g, at 4° C. for 15 minutes. The supernatant was discarded and pellet resuspended in Buffer A consisting of 25 mM TES(pH 6.8) with 2 uM 1,10-Phenanthroline, and centrifuged at 27,000 ×g for 15 min. this was then repeated. The final pellet was resuspended in Buffer B (Buffer A with 2 uM Captopril, 140 ug/Ml Bacitracin, 0.1%BSA), and stored in 1 ml aliquots, frozen at -20° C. until needed.
(§2) Binding assays were performed by incubating human clone membranes with 0.3 nM ^3 H-Bradykinin or IMR-90 membranes with 0.5 nM ^3 H-des-Arg^9 -Kallidin in the presence of the peptides in assay buffer (Buffer B with 1 mM Dithiotreitol), at room temperature, for 45 minutes. All test compound dilutions were in triplicate. Assays were harvested by quick filtration in a Tomtec Harvester 96, with ice cold wash buffer consisting of 10 mM Tris/HCl, pH 7.5, 100 mM NaCl, 0.02%BSA, onto Wallec printed glassfiber Filtermat "B", which had been pre-soaked with 0.1% PEI and previously air-dried.

In experiment [2] the target is T2, B2 receptor (Homo sapiens, UniProt P30411).
T2 construct: expressed in transfected cells
T2 sequence (P30411 1-391): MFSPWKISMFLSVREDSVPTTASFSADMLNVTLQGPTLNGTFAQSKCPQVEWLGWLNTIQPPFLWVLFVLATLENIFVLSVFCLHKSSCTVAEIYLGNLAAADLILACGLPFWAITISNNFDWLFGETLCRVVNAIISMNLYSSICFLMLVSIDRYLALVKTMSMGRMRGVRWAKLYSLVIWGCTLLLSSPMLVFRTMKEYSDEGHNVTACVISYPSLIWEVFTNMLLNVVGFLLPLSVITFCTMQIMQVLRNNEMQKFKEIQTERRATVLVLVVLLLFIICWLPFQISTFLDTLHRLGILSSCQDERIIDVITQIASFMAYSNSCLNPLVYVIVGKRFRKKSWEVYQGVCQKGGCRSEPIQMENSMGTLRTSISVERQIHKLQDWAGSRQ
As to the kind of experiment: Human B2 binding, human BK2 clone membranes, 3H-Bradykinin. To be noted: 0.3 nM 3H-Bradykinin, i.a. = inactive; for IC50: read-out: Human Binding - pIC50 B2 (converted). How it is done:
as §1
as §2, with “air-dried. Filtermats were counted in 9.5 mls Wallec Beta-Plate Scint, in Wallec 1450 MicroBeta Counter.” for “air-dried.”

Experiment [3] deals with T3, B2 receptor (Cavia porcellus, UniProt O70526).
T3 construct: from tissue
T3 sequence (O70526 1-372): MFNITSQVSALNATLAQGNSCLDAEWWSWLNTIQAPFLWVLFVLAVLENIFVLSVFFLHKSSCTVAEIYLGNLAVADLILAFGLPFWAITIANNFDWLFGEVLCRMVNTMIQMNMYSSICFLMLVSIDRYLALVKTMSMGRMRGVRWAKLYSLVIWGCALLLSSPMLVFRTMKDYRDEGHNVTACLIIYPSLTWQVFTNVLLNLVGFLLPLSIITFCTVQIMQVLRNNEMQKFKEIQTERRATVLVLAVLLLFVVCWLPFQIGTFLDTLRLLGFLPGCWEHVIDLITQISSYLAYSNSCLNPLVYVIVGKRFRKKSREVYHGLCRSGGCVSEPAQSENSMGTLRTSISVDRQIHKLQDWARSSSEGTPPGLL
As to the kind of experiment: GPI binding B2. As to conditions: i.a. = inactive; for IC50: read-out: GPI Binding - pIC50 B2 (converted).

Experiment [4] concerns the target T4, BK1 (hypotensive response to desArg9BK) (Canis lupus familiaris, UniProt Q9BDQ5).
T4 construct: Mongrel dogs of either sex, weight range 10-15 kg were used; from tissue; host or cells: whole anaesthetized mongrel dog (in vivo blood pressure)
T4 sequence (Q9BDQ5 1-350): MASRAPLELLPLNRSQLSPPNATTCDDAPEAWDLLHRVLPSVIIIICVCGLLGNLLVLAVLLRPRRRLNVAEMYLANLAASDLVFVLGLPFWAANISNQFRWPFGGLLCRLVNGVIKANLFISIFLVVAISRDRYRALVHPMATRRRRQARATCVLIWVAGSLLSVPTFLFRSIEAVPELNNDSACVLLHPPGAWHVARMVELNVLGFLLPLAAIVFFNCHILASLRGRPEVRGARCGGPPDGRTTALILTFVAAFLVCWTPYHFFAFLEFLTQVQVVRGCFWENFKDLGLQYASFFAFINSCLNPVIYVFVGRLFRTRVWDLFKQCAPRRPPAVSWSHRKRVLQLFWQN
As to the kind of experiment: In vivo inhibition of hypotensive response to desArg9BK in anaesthetized dogs. Also on record: species or system Mongrel dogs. To be noted: dog, infusion; dose of antagonist to inhibit hypotensive response to desArg9BK by 50%. How it is done:
Mongrel dogs of either sex, weight range 10-15 kg were used. These were anaesthesized with pentobarbitone, 30 mg/kg i.v. and catheters placed in one femoral artery and both femoral veins for the recording of blood pressure and infusion and injection of compounds. […] After the end of the infusion of the highest dose of the antagonist compound, BK and des-Arg^9 -BK were injected at intervals for up to four hours.

Square brackets hold non-standard residues; d marks the D form. Peptide text beside a SMILES is read from it. * marks the point of attachment. Oic = O=C(O)[C@@H]1C[C@@H]2CCCC[C@@H]2N1; X1 = N=C(N)NCCC[C@@H](NC(=N)N)C(=O)*; dIgl = N[C@@H](C(=O)O)C1Cc2ccccc2C1; Gly(cPent) = N[C@H](C(=O)O)C1CCCC1; Igl = N[C@H](C(=O)O)C1Cc2ccccc2C1; Hyp = O=C(O)[C@@H]1C[C@@H](O)CN1; Tic = O=C(O)[C@@H]1Cc2ccccc2CN1; dTic = O=C(O)[C@H]1Cc2ccccc2CN1; 2Thi = N[C@@H](Cc1cccs1)C(=O)O

Consider `N=C(N)NCCC[C@@H](N)C(=O)N[C@@H](CCCNC(=N)N)C(=O)N1CCC[C@H]1C(=O)N1C[C@H](O)C[C@H]1C(=O)NCC(=O)N[C@H](C(=O)N[C@@H](CO)C(=O)N1Cc2ccccc2C[C@@H]1C(=O)N[C@H](C(=O)O)C1CCCC1)C1Cc2ccccc2C1` [B9840, DArg-Arg-Pro-Hyp-Gly-Igl-Ser-DTic-Cpg] (H-[dR]RP[Hyp]G[Igl]S[dTic][Gly(cPent)]-OH), for which the IC50 in experiment [1] was 0.794 nM; in experiment [2] it was 631 nM. Also, the “GPI Binding - pIC50 B2” value in experiment [3] is listed as “i.a”.

Consider `N=C(N)NCCC[C@H](NC(=O)[C@H](CCCCN)NC(=O)[C@@H](N)CCCCN)C(=O)N1CCC[C@H]1C(=O)N1C[C@H](O)C[C@H]1C(=O)NCC(=O)N[C@H](C(=O)N[C@@H](CO)C(=O)N[C@@H](C(=O)N1[C@H](C(=O)O)C[C@@H]2CCCC[C@@H]21)C1Cc2ccccc2C1)C1Cc2ccccc2C1` [B9858, Lys- Lys-Arg-Pro-Hyp-Gly-Igl-Ser-DIgl-Oic], for which the IC50 in experiment [2] is 20 nM; in experiment [3], 126 nM. In addition, the “BK1 ED50” value in experiment [4] stood at 0.03 ± 0.01 µg/kg/min.

Take `CC(C)C[C@H](NC(=O)[C@H](NC(=O)[C@H](CO)NC(=O)[C@@H](NC(=O)CNC(=O)[C@@H]1C[C@@H](O)CN1C(=O)[C@@H]1CCCN1C(=O)[C@H](CCCNC(=N)N)NC(=O)[C@H](N)CCCNC(=N)N)C1Cc2ccccc2C1)C1Cc2ccccc2C1)C(=O)O` [B9816, DArg-Arg-Pro-Hyp-Gly-Igl-Ser-DIgl-Leu] (H-[dR]RP[Hyp]G[Igl]S[dIgl]L-OH): the IC50 in experiment [1] was 1.26 nM; in experiment [2], 631 nM; in experiment [3], 2000 nM.

Consider `N=C(N)NCCC[C@H](NC(=O)[C@@H](N)CCCCN)C(=O)N1CCC[C@H]1C(=O)N1C[C@H](O)C[C@H]1C(=O)NCC(=O)N[C@H](C(=O)N[C@@H](CO)C(=O)N1Cc2ccccc2C[C@@H]1C(=O)N[C@H](C(=O)O)C1CCCC1)C1Cc2ccccc2C1` [B9842, Lys-Arg-Pro-Hyp-Gly-Igl-Ser-DTic-Cpg] (H-KRP[Hyp]G[Igl]S[dTic][Gly(cPent)]-OH), for which the IC50 is 0.251 nM in experiment [1] and 631 nM in experiment [2]. The “GPI Binding - pIC50 B2” value in experiment [3] is reported as “i.a”.

Turning to `N=C(N)NCCC[C@@H](N)C(=O)N[C@@H](CCCNC(=N)N)C(=O)N1CCC[C@H]1C(=O)N1C[C@H](O)C[C@H]1C(=O)NCC(=O)N[C@@H](Cc1cccs1)C(=O)N[C@@H](CO)C(=O)N1Cc2ccccc2C[C@H]1C(=O)N[C@H](C(=O)O)C1CCCC1` [B9006, DArg-Arg-Pro-Hyp-Gly-Thi-Ser-Tic-Cpg] (H-[dR]RP[Hyp]G[2Thi]S[Tic][Gly(cPent)]-OH), the IC50 in experiment [1] is 12.6 nM; in experiment [2], 631 nM; in experiment [3], 10000 nM.

In experiment [1], `CC(C)C[C@H](NC(=O)[C@H](NC(=O)[C@H](CO)NC(=O)[C@@H](NC(=O)CNC(=O)[C@@H]1C[C@@H](O)CN1C(=O)[C@@H]1CCCN1C(=O)[C@@H](N)CCCNC(=N)N)C1Cc2ccccc2C1)C1Cc2ccccc2C1)C(=O)O` [B9814, Arg-Pro-Hyp-Gly-Igl-Ser-DIgl-Leu] (H-RP[Hyp]G[Igl]S[dIgl]L-OH) gave an IC50 of 6.31 nM. For the same molecule, in experiment [2], the “Human Binding - pIC50 B2” value is recorded as “i.a”. In experiment [3], the “GPI Binding - pIC50 B2” value was “i.a”.

Consider `CC(C)C[C@H](NC(=O)[C@@H]1CCCN1C(=O)[C@H](CO)NC(=O)[C@H](Cc1ccccc1)NC(=O)CNC(=O)[C@@H]1CCCN1C(=O)[C@@H]1CCCN1C(=O)[C@H](CCCNC(=N)N)NC(=O)[C@H](CCCCN)NC(=O)CNC(=N)N)C(=O)O` [B9810], for which the “Human Binding - pIC50 B2” value in experiment [2] was “i.a”. The “GPI Binding - pIC50 B2” value in experiment [3] is “i.a”.

As for `N=C(N)NCCC[C@@H](N)C(=O)N[C@@H](CCCNC(=N)N)C(=O)N1CCC[C@H]1C(=O)N1C[C@H](O)C[C@H]1C(=O)NCC(=O)N[C@@H](Cc1cccs1)C(=O)N[C@@H](CO)C(=O)N1Cc2ccccc2C[C@@H]1C(=O)N[C@H](C(=O)O)C1CCCC1` [B9068, DArg-Arg-Pro-Hyp-Gly-Thi-Ser-DTic-Cpg] (H-[dR]RP[Hyp]G[2Thi]S[dTic][Gly(cPent)]-OH), the IC50 is 1.58 nM in experiment [1], 2000 nM in experiment [2] and 7940 nM in experiment [3].

As to `N=C(N)NCCC[C@H](NC(=O)[C@@H](CCCNC(=N)N)NC(=N)N)C(=O)N1CCC[C@H]1C(=O)N1C[C@H](O)C[C@H]1C(=O)NCC(=O)N[C@@H](Cc1cccs1)C(=O)N[C@@H](CO)C(=O)N[C@@H](C(=O)N1[C@H](C(=O)O)C[C@@H]2CCCC[C@@H]21)C1Cc2ccccc2C1` [B9826, Gun- DArg-Arg-Pro-Hyp-Gly-Thi-Ser-DIgl-Oic] (X1-RP[Hyp]G[2Thi]S[dIgl][Oic]-OH), the IC50 is 0.126 nM in experiment [1], 7.94 nM in experiment [2] and 79.4 nM in experiment [3].

With `N=C(N)NCCC[C@@H](N)C(=O)N[C@@H](CCCNC(=N)N)C(=O)N1CCC[C@H]1C(=O)N1C[C@H](O)C[C@H]1C(=O)NCC(=O)N[C@H](C(=O)N[C@@H](CO)C(=O)N1Cc2ccccc2C[C@H]1C(=O)N[C@H](C(=O)O)C1CCCC1)C1CCCC1` [B9004, DArg-Arg-Pro-Hyp-Gly-Cpg-Ser-Tic-Cpg] (H-[dR]RP[Hyp]G[Gly(cPent)]S[Tic][Gly(cPent)]-OH), the IC50 was 3.16 nM in experiment [1], 1580 nM in experiment [2] and 6310 nM in experiment [3].
